In ChEMBL document CHEMBL4842348 (J Med Chem, 2021):

Experiment: Lipophilicity, logD of the compound at pH 7.3 by HPLC analysis
Assay type: physicochemical
Settings: buffer

Row | Compound | logD
1 | COc1ncc(-c2ccc(C(=O)O)cc2C)cc1-c1ccc(C(F)(F)F)cc1CN1C(=O)O[C@H](c2cc(C(F)(F)F)cc(C(F)(F)F)c2)[C@@H]1C | 5.4
2 | COc1ccc(-c2ccc(C(=O)O)cc2C)cc1-c1cnc(N(C)C)nc1CN1C(=O)O[C@H](c2cc(Cl)cc(Cl)c2)[C@@H]1C | 4.6
3 | COc1cc(F)c(C(C)C)cc1-c1cnc(N(C)C)nc1[C@@H]1CC[C@H]2[C@@H](c3cc(C(F)(F)F)cc(C(F)(F)F)c3)OC(=O)N12 | 7
4 | COc1ccc(-c2ccc(C(=O)O)cc2C)cc1-c1cnc(N(C)C)nc1CN1C(=O)O[C@H](c2ccnc(C(F)(F)F)c2)[C@@H]1C | 3.2
5 | COc1ncc(-c2ccc(C(=O)O)cc2C)cc1-c1cnc(C(F)(F)F)nc1CN1C(=O)O[C@H](c2cc(C(F)(F)F)cc(C(F)(F)F)c2)[C@@H]1C | 4.9
6 | COc1ccc(-c2ccc(C(=O)O)cc2C)cc1-c1cnc(N(C)C)nc1CN1C(=O)O[C@H](c2cccc(C(F)(F)F)c2)[C@@H]1C | 4.1
7 | CCc1ncc(-c2cc(-c3ccc(C(=O)O)cc3C)ccc2OC)c(CN2C(=O)O[C@H](c3cc(C(F)(F)F)cc(C(F)(F)F)c3)[C@@H]2C)n1 | 4.5
8 | COc1ccc(-c2ccc(C(=O)O)cc2C)cc1-c1cnc(N(C)C)nc1CN1C(=O)O[C@H](c2ccc(OC(F)(F)F)cc2)[C@@H]1C | 4.3
9 | COc1ccc(-c2ccc(C(=O)O)cc2C)cc1-c1cnc(N(C)C)nc1CN1C(=O)O[C@H](c2cc(F)cc(F)c2)[C@@H]1C | 3.8
10 | COc1ccc(-c2ccc(C(=O)O)cc2C)cc1-c1cnc(N(C)C)nc1CN1C(=O)O[C@H](c2cncc(C(F)(F)F)c2)[C@@H]1C | 3.3
11 | COc1ccc(-c2ccc(C(=O)O)cc2C)cc1-c1cnc(C(F)(F)F)cc1CN1C(=O)O[C@H](c2cc(C(F)(F)F)cc(C(F)(F)F)c2)[C@@H]1C | 4.7
12 | COc1cc(F)c(C(C)C)cc1-c1cnc(N(C)C)cc1[C@@H]1CC[C@H]2[C@@H](c3cc(C(F)(F)F)cc(C(F)(F)F)c3)OC(=O)N12 | 7
13 | COc1ccc(-c2ccc(C(=O)O)cc2C)cc1-c1cnc(N2CCCC2)nc1CN1C(=O)O[C@H](c2cc(C(F)(F)F)cc(C(F)(F)F)c2)[C@@H]1C | 5.2
14 | COc1ccc(-c2ccc(C(=O)O)cc2C)cc1-c1cnc(N(C)C)nc1CN1C(=O)O[C@H](c2cccc(C(F)(F)F)n2)[C@@H]1C | 3.8
15 | COc1cc(F)c(C(C)C)cc1-c1ccc(C(F)(F)F)cc1[C@@H]1CC[C@H]2[C@@H](c3cc(Cl)cc(Cl)c3)OC(=O)N12 | 6.1
16 | COc1ccc(-c2ccc(C(=O)O)cc2C)cc1-c1cnc(N(C)C)nc1CN1C(=O)O[C@H](c2cccc(OC(F)(F)F)c2)[C@@H]1C | 4.3
17 | COc1ccc(-c2ccc(C(=O)O)cc2C)cc1-c1cnc(N(C)C)nc1CN1C(=O)O[C@H](c2cccc(Cl)c2)[C@@H]1C | 4

Further lines, results first:

Row | logD | Compound
18 | 5.1 | COc1ccc([C@H]2C[C@H](C(=O)O)C2)cc1-c1ccc(C(F)(F)F)cc1[C@@H]1CC[C@H]2[C@@H](c3cc(C(F)(F)F)cc(C(F)(F)F)c3)OC(=O)N12
19 | 4.8 | COc1ccc(-c2ccc(C(=O)O)cc2C)cc1-c1cnc(C(F)(F)F)cc1[C@@H]1CC[C@H]2[C@@H](c3cc(C(F)(F)F)cc(C(F)(F)F)c3)OC(=O)N12
20 | 5.4 | COc1ccc(-c2c(C)cc(C(=O)O)cc2C)cc1-c1ccc(C(F)(F)F)cc1[C@@H]1CC[C@H]2[C@@H](c3cc(C(F)(F)F)cc(C(F)(F)F)c3)OC(=O)N12
21 | 6.1 | COc1cc(F)c(C(C)C)cc1-c1ccc(C(F)(F)F)cc1[C@@H]1CC[C@H]2[C@@H](c3cccc(C(F)(F)F)c3)OC(=O)N12
22 | 5.7 | COc1ccc(C2CNC(=O)OC2(C)C)cc1-c1ccc(C(F)(F)F)cc1[C@@H]1CC[C@H]2[C@@H](c3cc(C(F)(F)F)cc(C(F)(F)F)c3)OC(=O)N12 (some centres not stated)
23 | 5.1 | COc1cc(F)c(-c2ccc(C(=O)O)cc2C)cc1-c1ccc(C(F)(F)F)cc1[C@@H]1CC[C@H]2[C@@H](c3cc(F)cc(C(F)(F)F)c3)OC(=O)N12
24 | 7 | COc1cc(F)c(C(C)C)cc1-c1ccc(C(F)(F)F)cc1[C@@H]1CC[C@H]2[C@@H](c3cc(C)cc(C(F)(F)F)c3)OC(=O)N12
25 | 7 | COc1cc(F)c(C(C)C)cc1-c1ccc(F)cc1[C@@H]1CC[C@H]2[C@@H](c3cc(C(F)(F)F)cc(C(F)(F)F)c3)OC(=O)N12
26 | 6 | COc1ccc(-c2ccc(C(=O)O)cc2C)cc1-c1c(C)cc(C(F)(F)F)cc1[C@@H]1CC[C@H]2[C@@H](c3cc(C(F)(F)F)cc(C(F)(F)F)c3)OC(=O)N12
27 | 4.8 | COc1cc(F)c(-c2ccc(C(=O)O)cc2C)cc1-c1cnc(C2CC2)cc1[C@@H]1CC[C@H]2[C@@H](c3cc(C(F)(F)F)cc(C(F)(F)F)c3)OC(=O)N12
28 | 5.9 | COc1ccc([C@H]2CCC(=O)N[C@@H]2C)cc1-c1ccc(C(F)(F)F)cc1[C@@H]1CC[C@H]2[C@@H](c3cc(C(F)(F)F)cc(C(F)(F)F)c3)OC(=O)N12
29 | 6 | COc1cc(F)c(-c2ccc(C(=O)O)cc2C)cc1-c1cc(C)c(C(F)(F)F)cc1[C@@H]1CC[C@H]2[C@@H](c3cc(C(F)(F)F)cc(C(F)(F)F)c3)OC(=O)N12
30 | 4.6 | COc1ncc(-c2ccc(C(=O)O)cc2C)cc1-c1cnc(C(F)(F)F)cc1[C@@H]1CC[C@H]2[C@@H](c3cc(C(F)(F)F)cc(C(F)(F)F)c3)OC(=O)N12
31 | 5.8 | COc1ncc(-c2ccc(C(=O)O)cc2C)cc1-c1cc(C)c(C(F)(F)F)cc1[C@@H]1CC[C@H]2[C@@H](c3cc(C(F)(F)F)cc(C(F)(F)F)c3)OC(=O)N12
32 | 4.5 | COc1ncc(-c2ccc(C(=O)O)cc2C)cc1-c1ncc(C(F)(F)F)cc1[C@@H]1CC[C@H]2[C@@H](c3cc(C(F)(F)F)cc(C(F)(F)F)c3)OC(=O)N12
33 | 5.7 | COc1ccc([C@@H]2C[C@@H](O)[C@@H](O)C2)cc1-c1ccc(C(F)(F)F)cc1[C@@H]1CC[C@H]2[C@@H](c3cc(C(F)(F)F)cc(C(F)(F)F)c3)OC(=O)N12
34 | 4.6 | COc1ccc(-c2ccc(C(=O)O)cc2C)cc1-c1ncc(C(F)(F)F)cc1[C@@H]1CC[C@H]2[C@@H](c3cc(C(F)(F)F)cc(C(F)(F)F)c3)OC(=O)N12
35 | 5 | COc1ncc(-c2ccc(C(=O)O)cc2C)cc1-c1ccc(C(F)(F)F)cc1[C@@H]1CC[C@H]2[C@@H](c3cc(F)cc(C(F)(F)F)c3)OC(=O)N12
36 | 6.3 | COc1cc(F)c(C(C)C)cc1-c1ccc(C(F)(F)F)cc1[C@@H]1CC[C@H]2[C@@H](c3cc(F)cc(C(F)(F)F)c3)OC(=O)N12
37 | 5 | COc1ccc(C(C)CC(=O)O)cc1-c1ccc(C(F)(F)F)cc1[C@@H]1CC[C@H]2[C@@H](c3cc(C(F)(F)F)cc(C(F)(F)F)c3)OC(=O)N12 (some centres not stated)
38 | 6.5 | COc1cc(F)c(C(C)C)cc1-c1ccc(C(F)(F)F)cc1[C@@H]1CC[C@H]2[C@@H](c3cc(Cl)cc(C(F)(F)F)c3)OC(=O)N12
39 | 7.1 | COc1cc(F)c(C(C)C)cc1-c1ccc(C(F)(F)F)cc1[C@@H]1CC[C@H]2[C@@H](c3cc(C(F)(F)F)cc(C(F)(F)F)c3)OC(=O)N12
40 | 5.7 | COc1ncc(-c2ccc(C(=O)O)cc2C)cc1-c1c(C)cc(C(F)(F)F)cc1[C@@H]1CC[C@H]2[C@@H](c3cc(C(F)(F)F)cc(C(F)(F)F)c3)OC(=O)N12
41 | 4.8 | COc1ccc(-c2c(C)cc(C(=O)O)cc2C)cc1-c1ncc(C(F)(F)F)cc1[C@@H]1CC[C@H]2[C@@H](c3cc(C(F)(F)F)cc(C(F)(F)F)c3)OC(=O)N12
42 | 5.8 | COc1ncc(-c2c(C)cc(C(=O)O)cc2C)cc1-c1ccc(C(F)(F)F)nc1[C@@H]1CC[C@H]2[C@@H](c3cc(C(F)(F)F)cc(C(F)(F)F)c3)OC(=O)N12
